Assay results published in PubChem BioAssay AID1963839 (Molecular Pharmacology Branch, DTP, NCI, 2024).
pIC50: −log10 of the molar value.

Test system: 817829-284-R-J1-PDC complex spheroid viability
Experiment: Anticancer human tumor 817829-284-R-J1-PDC patient-derived colon adenocarcinoma cell line growth inhibition [POLQ]
Details: for pIC50: curve of first compound; for viability, T/C: stronger effect = lower value
Procedure, shortened: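 Growth inhibition in 3D: complex spheroids (tumor PDC, HUVEC, MSC) treated with POLQ inhibitor combinations; where Cmax unknown, highest tested concentration 10 microM, except SN-38 at 1 microM.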

[1] = second compound 0.0316 µM, first compound 0.0316 µM
[2] = second compound 0.0316 µM, first compound 0.1 µM
[3] = second compound 0.0316 µM, first compound 0.316 µM
[4] = second compound 0.0316 µM, first compound 1 µM
[5] = second compound 0.0316 µM, first compound 3.16 µM
[6] = second compound 0.0316 µM, first compound 10 µM
[7] = second compound 0.1 µM, first compound 0.0316 µM
[8] = second compound 0.1 µM, first compound 0.1 µM
[9] = second compound 0.1 µM, first compound 0.316 µM
[10] = second compound 0.1 µM, first compound 1 µM
[11] = second compound 0.1 µM, first compound 3.16 µM
[12] = second compound 0.1 µM, first compound 10 µM
[13] = second compound 0.316 µM, first compound 0.0316 µM
[14] = second compound 0.316 µM, first compound 0.1 µM
[15] = second compound 0.316 µM, first compound 0.316 µM
[16] = second compound 0.316 µM, first compound 1 µM
[17] = second compound 0.316 µM, first compound 3.16 µM
[18] = second compound 0.316 µM, first compound 10 µM
[19] = second compound 1 µM, first compound 0.0316 µM
[20] = second compound 1 µM, first compound 0.1 µM
[21] = second compound 1 µM, first compound 0.316 µM
[22] = second compound 1 µM, first compound 1 µM
[23] = second compound 1 µM, first compound 3.16 µM
[24] = second compound 1 µM, first compound 10 µM
[25] = second compound 3.16 µM, first compound 0.0316 µM
[26] = second compound 3.16 µM, first compound 0.1 µM
[27] = second compound 3.16 µM, first compound 0.316 µM
[28] = second compound 3.16 µM, first compound 1 µM
[29] = second compound 3.16 µM, first compound 3.16 µM
[30] = second compound 3.16 µM, first compound 10 µM
[31] = second compound 10 µM, first compound 0.0316 µM
[32] = second compound 10 µM, first compound 0.1 µM
[33] = second compound 10 µM, first compound 0.316 µM
[34] = second compound 10 µM, first compound 1 µM
[35] = second compound 10 µM, first compound 3.16 µM
[36] = second compound 10 µM, first compound 10 µM
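Also: spheroids exposed to compounds for 7 days.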
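For viability, T/C in this document: 100% = DMSO vehicle-treated spheroids.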

`C=CC(=O)N1CCN(c2nc(=O)n(-c3c(C)ccnc3C(C)C)c3nc(-c4c(O)cccc4F)c(F)cc23)C(C)C1` (centres undefined) + Cc1cccc(N(C)C(=O)C2C(O)CCN2c2nc(C)cc(C(F)(F)F)c2C#N)c1 gave a pIC50 (second compound 0.0316 µM) of 5.03, a pIC50 (second compound 0.1 µM) of 5.02 and a pIC50 (second compound 0.316 µM) of 5.04. The pIC50 (second compound 1 µM) was 5.11, the pIC50 (second compound 3.16 µM) was 5.14 and the pIC50 (second compound 10 µM) was < 5.00. The viability, T/C [1] was 94.4%, the viability, T/C [2] was 140% and the viability, T/C [3] was 112%. It also gave a viability, T/C [4] of 105%, a viability, T/C [5] of 82.7% and a viability, T/C [6] of 48%. The viability, T/C [7] was 91.1%, the viability, T/C [8] was 109% and the viability, T/C [9] was 104%. It also gave a viability, T/C [10] of 110%, a viability, T/C [11] of 86.3% and a viability, T/C [12] of 48.2%. For the same compound, the viability, T/C [13] was 92.2%, the viability, T/C [14] was 109% and the viability, T/C [15] was 108%. It also gave a viability, T/C [16] of 83.5%, a viability, T/C [17] of 83.1% and a viability, T/C [18] of 46.9%. For the same compound, the viability, T/C [19] was 92.9%, the viability, T/C [20] was 91.2% and the viability, T/C [21] was 112%. For the same compound, the viability, T/C [22] was 99%, the viability, T/C [23] was 86.4% and the viability, T/C [24] was 39.9%. It also gave a viability, T/C [25] of 113%, a viability, T/C [26] of 125% and a viability, T/C [27] of 87.8%. The viability, T/C [28] was 89.3%, the viability, T/C [29] was 76.3% and the viability, T/C [30] was 39.9%. For the same compound, the viability, T/C [31] was 89.4%, the viability, T/C [32] was 104% and the viability, T/C [33] was 84%. The viability, T/C [34] was 113%, the viability, T/C [35] was 66.9% and the viability, T/C [36] was 54.9%.
In the case of `CC(C)n1c(=O)n(C)c2cnc3cc(F)c(-c4ccc(OCCCN5CCCCC5)nc4)cc3c21` + Cc1cccc(N(C)C(=O)C2C(O)CCN2c2nc(C)cc(C(F)(F)F)c2C#N)c1, the pIC50 (second compound 0.0316 µM) was 5.17, the pIC50 (second compound 0.1 µM) was 5.12 and the pIC50 (second compound 0.316 µM) was 5.08. The pIC50 (second compound 1 µM) was 5.22, the pIC50 (second compound 3.16 µM) was 5.08 and the pIC50 (second compound 10 µM) was 5.22. For the same compound, the viability, T/C [1] was 91.7%, the viability, T/C [2] was 77.1% and the viability, T/C [3] was 96.6%. The viability, T/C [4] was 86.3%, the viability, T/C [5] was 84.3% and the viability, T/C [6] was 32.1%. For the same compound, the viability, T/C [7] was 73.6%, the viability, T/C [8] was 107% and the viability, T/C [9] was 91.6%. It also gave a viability, T/C [10] of 76.8%, a viability, T/C [11] of 106% and a viability, T/C [12] of 37.5%. It also gave a viability, T/C [13] of 87.3%, a viability, T/C [14] of 83.3% and a viability, T/C [15] of 94.4%. It also gave a viability, T/C [16] of 87.6%, a viability, T/C [17] of 83% and a viability, T/C [18] of 43.8%. It also gave a viability, T/C [19] of 99.7%, a viability, T/C [20] of 86.5% and a viability, T/C [21] of 99.1%. It also gave a viability, T/C [22] of 72.6%, a viability, T/C [23] of 73.7% and a viability, T/C [24] of 34.4%. For the same compound, the viability, T/C [25] was 93.8%, the viability, T/C [26] was 70.6% and the viability, T/C [27] was 78.1%. It also gave a viability, T/C [28] of 100%, a viability, T/C [29] of 70.5% and a viability, T/C [30] of 45.8%. The viability, T/C [31] was 85.7%, the viability, T/C [32] was 81.6% and the viability, T/C [33] was 74%. The viability, T/C [34] was 67.8%, the viability, T/C [35] was 79% and the viability, T/C [36] was 28.9%.
